Measured values reported in patent US5516790A, “Synthesis and application of alkyl-substituted dibenzofurans as antitumorigenic agents” (Texas A&M University System Technology Licensing Office, priority 1994, dated 1996).

Columns and labels:
[1] = system: female rat uterus; experiment: Antiestrogenic effect on uterine wet weight, immature female Sprague-Dawley rats (Example 8); assay type: in vivo
[2] = system: estrogen receptor (ER); experiment: Uterine estrogen receptor levels, hydroxyapatite assay (Example 8); assay type: in vivo, female Sprague-Dawley rats; conditions: for ED40-60 for Inhibition, ERc / ED40-60 for Inhibition, ERn: cotreatment with 17β-estradiol
Procedure: A second group of animals was similarly treated with corn oil, TCDD, MCDF, or TCDD plus MCDF, all administered in corn oil at 10 ml/kg and terminated 72 hours later.
(§1) The animals were terminated by cervical dislocation. Livers were perfused with ice-cold TEDG buffer (10 mM Tris-HCl, 1.5 mM EDTA-4Na, 1 mM dithiothreitol, 10% glycerol (v/v), pH 7.4). Following perfusion in situ, livers were removed, weighed, and homogenized in ice-cold TEDG buffer. Uteri were also removed, weighed, and homogenized in ice-cold buffer. The homogenates were then centrifuged at 800×g ([…]) for 15 minutes and the nuclear pellets were stored at -80° C. The supernatants were further centrifuged at 180,000× g for 1.5 hours. The cytosolic supernatant was also stored at -80° C. Estrogen and progesterone receptor levels were determined within 7 days.
(§2) Estrogen (ER) and progesterone (PR) receptor levels were determined by the hydroxyapatite assay as described by Clark et al. (J. Steroid Biochem. 16:323-328, 1982) and incorporated herein by reference. […] Following the incubations, samples were counted and specific binding was calculated by subtraction of nonspecific from total binding. Assuming one steroid molecule binds to one estrogen/progesterone receptor, the number of moles of receptor can be calculated given the specific activity of the radioligand. The data presented in Tables 1 through 6 are means ± SD using at least four animals per treatment group. Significant differences were determined by analysis of variance.

[3] = system: progesterone receptor (PR); experiment: Uterine progesterone receptor levels, hydroxyapatite assay (Example 8); assay type: in vivo, female Sprague-Dawley rats; conditions: for ED40-60 for Inhibition, PRc / ED40-60 for Inhibition, PRn: cotreatment with 17β-estradiol
Procedure: as §1, §2

[4] = Table 2: 50 μmol/kg + E-2 (2 × 10 μg/rat)
[5] = Table 2: compound alone, 50 μmol/kg (17β-estradiol: 2 × 10 μg/rat)
[6] = dose-response, 2 μmol/kg + 17β-estradiol (2 × 10 μg/rat)
[7] = dose-response, 10 μmol/kg + 17β-estradiol (2 × 10 μg/rat)
[8] = dose-response, 25 μmol/kg + 17β-estradiol (2 × 10 μg/rat)
[9] = dose-response, 50 μmol/kg + 17β-estradiol (2 × 10 μg/rat)
[10] = dose-response, 150 μmol/kg + 17β-estradiol (2 × 10 μg/rat)
[11] = 150 μmol/kg + E-2 (2 × 10 μg/rat), run B
[12] = compound alone, 150 μmol/kg (17β-estradiol: 2 × 10 μg/rat), run B

SMILES | Uterine Wet Weight [1, 4] [% body wt] | Uterine Wet Weight [1, 5] [% body wt] | Uterine Wet Weight [1, 7] [% body wt] | Uterine Wet Weight [1, 8] [% body wt] | Uterine Wet Weight [1, 9] [% body wt] | Estrogen Receptor Levels, Cytosolic [2, 4] [fmol/mg protein] | Estrogen Receptor Levels, Nuclear [2, 4] [fmol/mg protein] | Estrogen Receptor Levels, Cytosolic [2, 5] [fmol/mg protein] | Estrogen Receptor Levels, Nuclear [2, 5] [fmol/mg protein] | ED40-60 for Inhibition, ERc [2] [µmol/kg] | ED40-60 for Inhibition, ERn [2] [µmol/kg] | Estrogen Receptor Levels, Cytosolic [2, 7] [fmol/mg protein] | Estrogen Receptor Levels, Nuclear [2, 7] [fmol/mg protein] | Estrogen Receptor Levels, Cytosolic [2, 8] [fmol/mg protein] | Estrogen Receptor Levels, Nuclear [2, 8] [fmol/mg protein] | Estrogen Receptor Levels, Cytosolic [2, 9] [fmol/mg protein] | Estrogen Receptor Levels, Nuclear [2, 9] [fmol/mg protein] | Progesterone Receptor Levels, Cytosolic [3, 4] [fmol/mg protein] | Progesterone Receptor Levels, Nuclear [3, 4] [fmol/mg protein] | Progesterone Receptor Levels, Cytosolic [3, 5] [fmol/mg protein] | other results
Cc1cc(Cl)cc2c1oc1c(Cl)c(Cl)c(Cl)cc12 [6-Methyl-2,3,4,8-tetraCDF, 6-Methyl-2,3,4,8-tetrachlorodibenzofuran] | 0.163 ± 0.019 | 0.109 ± 0.020 | 0.221 ± 0.020 | 0.191 ± 0.006 | 0.158 ± 0.004 | 176.3 ± 20.3 | 69.9 ± 9.4 | 96.2 ± 11.2 | 31.3 ± 5.6 | 2 | 2 | 83.9 ± 4.2 | 53.8 ± 3.2 | 75.1 ± 3.8 | 49.3 ± 3.0 | 71.0 ± 3.6 | 40.0 ± 2.4 | 795 ± 52 | 1081 ± 131 | 625 ± 71 | Uterine Wet Weight [1, 6]: 0.268 ± 0.044 % body wt; Estrogen Receptor Levels, Cytosolic [2, 6]: 86.7 ± 4.3 fmol/mg protein; Estrogen Receptor Levels, Nuclear [2, 6]: 64.7 ± 3.9 fmol/mg protein; Progesterone Receptor Levels, Nuclear [3, 5]: 457 ± 58 fmol/mg protein; ED40-60 for Inhibition, PRc [3]: 2 µmol/kg; ED40-60 for Inhibition, PRn [3]: 10 µmol/kg; Progesterone Receptor Levels, Cytosolic [3, 6]: 1220 ± 85 fmol/mg protein; Progesterone Receptor Levels, Nuclear [3, 6]: 925 ± 74 fmol/mg protein; Progesterone Receptor Levels, Cytosolic [3, 7]: 970 ± 68 fmol/mg protein; Progesterone Receptor Levels, Nuclear [3, 7]: 765 ± 61 fmol/mg protein; Progesterone Receptor Levels, Cytosolic [3, 8]: 1000 ± 63 fmol/mg protein; Progesterone Receptor Levels, Nuclear [3, 8]: 645 ± 52 fmol/mg protein; Progesterone Receptor Levels, Cytosolic [3, 9]: 885 ± 53 fmol/mg protein; Progesterone Receptor Levels, Nuclear [3, 9]: 450 ± 36 fmol/mg protein
Cc1cc(Cl)cc2c1oc1cc(Cl)c(Cl)cc12 [6-Methyl-2,3,8-triCDF, 6-methyl-2,3,8-trichlorodibenzofuran] | 0.204 ± 0.020 | 0.125 ± 0.024 |  |  |  | 105.3 ± 12.2 | 70.8 ± 8.1 | 84.3 ± 9.3 | 55.8 ± 7.1 |  |  |  |  |  |  |  |  | 1062 ± 121 | 622 ± 71 | 356 ± 65 | Progesterone Receptor Levels, Nuclear [3, 5]: 395 ± 52 fmol/mg protein
CCCc1cc(Cl)cc2c1oc1cc(Cl)cc(Cl)c12 [6-Propyl-1,3,8-Trichlorodibenzofuran] |  |  | 0.192 ± 0.013 | 0.170 ± 0.010 | 0.202 ± 0.014 |  |  |  |  |  |  | 105.5 ± 5.3 | 81.5 ± 4.9 | 87.8 ± 4.4 | 56.6 ± 2.8 | 66.7 ± 3.3 | 41.1 ± 2.1 |  |  |  | Uterine Wet Weight [1, 10]: 0.216 ± 0.012 % body wt; Estrogen Receptor Levels, Cytosolic [2, 10]: 88.2 ± 4.4 fmol/mg protein; Estrogen Receptor Levels, Nuclear [2, 10]: 35.6 ± 1.8 fmol/mg protein; Progesterone Receptor Levels, Cytosolic [3, 7]: 1501 ± 105 fmol/mg protein; Progesterone Receptor Levels, Nuclear [3, 7]: 850 ± 68 fmol/mg protein; Progesterone Receptor Levels, Cytosolic [3, 8]: 1055 ± 74 fmol/mg protein; Progesterone Receptor Levels, Nuclear [3, 8]: 515 ± 41 fmol/mg protein; Progesterone Receptor Levels, Cytosolic [3, 9]: 1105 ± 77 fmol/mg protein; Progesterone Receptor Levels, Nuclear [3, 9]: 510 ± 41 fmol/mg protein; Progesterone Receptor Levels, Cytosolic [3, 10]: 1190 ± 83 fmol/mg protein; Progesterone Receptor Levels, Nuclear [3, 10]: 660 ± 53 fmol/mg protein
CC(C)c1cc(Cl)cc2c1oc1cc(Cl)cc(Cl)c12 [6-i-Propyl-1,3,8-triCDF] |  |  |  |  |  |  |  |  |  | 10 | 25 |  |  |  |  |  |  |  |  |  | Uterine Wet Weight [1, 11]: 0.210 ± 0.012 % body wt; Uterine Wet Weight [1, 12]: 0.154 ± 0.017 % body wt; antiuterotrophic activity ([1]; rat, in vivo): surprisingly active; Estrogen Receptor Levels, Cytosolic [2, 11]: 135.5 ± 78.1 fmol/mg protein; Estrogen Receptor Levels, Nuclear [2, 11]: 52.6 ± 2.6 fmol/mg protein; Estrogen Receptor Levels, Cytosolic [2, 12]: 95.2 ± 6.2 fmol/mg protein; Estrogen Receptor Levels, Nuclear [2, 12]: 57.7 ± 2.9 fmol/mg protein; Progesterone Receptor Levels, Cytosolic [3, 11]: 2131 ± 76 fmol/mg protein; Progesterone Receptor Levels, Nuclear [3, 11]: 272 ± 19 fmol/mg protein; Progesterone Receptor Levels, Cytosolic [3, 12]: 1225 ± 59 fmol/mg protein; Progesterone Receptor Levels, Nuclear [3, 12]: 242 ± 17 fmol/mg protein; ED40-60 for Inhibition, PRc [3]: 25 µmol/kg; ED40-60 for Inhibition, PRn [3]: 25 µmol/kg
